Source: PubChem BioAssay AID1919006 (Molecular Pharmacology Branch, DTP, NCI, 2023)
pIC50: −log10 of the molar value.

Test system: 885512-296-R-J2-PDC complex spheroid growth, % test/control
Experiment: Anticancer human tumor 885512-296-R-J2-PDC patient-derived breast carcinoma cell line growth inhibition [AhR]
Settings: for pIC50: curve of first compound; for viability, T/C: stronger effect = lower value
From the text: Multicellular complex tumor spheroid response to aryl hydrocarbon receptor antagonists in combination with a variety of drugs and investigational agents in selected tumor cell lines
The current study was undertaken to assess response to aryl hydrocarbon receptor antagonists in combination with standard-of-care drugs and investigational agents in solid tumor complex spheroid models. Complex spheroids include a stromal component modeled by human endothelial cells (HUVEC) and fibroblasts modeled by human mesenchymal stem cells (MSCs). The concentration ranges selected for each drug and investigational agent were based upon clinically achievable concentrations if the clinical Cmax of the agent was known.
Compounds. The drugs and investigational agents: BAY 2416964 (NSC825713), GNF351 (NSC835774), CH-223191 (NSC835775), CPI-455 (NSC825282), aza-TdCyd (NSC777586), decitabine (NSC127716), belinostat (NSC758774), entinostat (NSC756642), pevonedistat (NSC761192), tazemetostat (NSC777109), talazoparib (NSC765396), olaparib (NSC753686), selinexor (NSC780203), nedisertib (M3814, NSC802822), bortezomib (NSC756655), venetoclax (NSC766270), doxorubicin (NSC123127), elimusertib (BAY189344, NSC800525), ceralasertib (AZD6738, NSC777638), TAK-243 (NSC785004), alisertib (NSC759677), etoposide (NSC141540), topotecan (NSC609699), eribulin (NSC707389), gemcitabine (NSC613327), carboplatin (NSC241240), cisplatin (NSC119875), and SN-38 (NSC673596) were obtained from the National Cancer Institute (NCI) Developmental Therapeutics Program Chemical Repository (32). The FDA-approved anticancer drug set is available from the Developmental Therapeutics Program at https://dtp.cancer.gov/organization/dscb/obtaining/available plates.htm. […] The stock solutions were prepared in dimethyl sulfoxide (DMSO, Sigma-Aldrich, St. Louis, MO, cat. D2650), except for the platinum compounds which were prepared in saline (Quality Biological, Gaithersburg, MD, cat. 114-055-101), at 800-fold the tested concentration and stored at -70 degrees C prior to their use. All drugs and investigational agents were tested over a range starting from a high concentration at or near the clinical Cmax and decreasing in half-log increments. If the clinical Cmax for an agent had not been determined, the highest concentration tested was 10 microM (Table 1).
Cell Culture. All cells were maintained in an incubator at 37 degrees C and 5% CO2 with 95% humidity. The PDC lines were cultured according to standard operating procedures established by the NCI PDMR (https://pdmr.cancer.gov). Briefly, all PDCs were thawed and cultured in Matrigel-coated flasks prepared with a working solution of 1X Ham's F-12 nutrient mix, without supplementation (Invitrogen, Waltham, MA, cat. 11765054), 100 U/mL penicillin-streptomycin (Invitrogen, cat. 15140122), and 2.5% Matrigel (Corning Inc., Corning, NY, cat. 354248) for the first three passages. All PDCs were cultured in complete DMEM/F-12 media containing advanced DMEM/F-12 (Invitrogen, cat. 12634028), 4.9% defined fetal bovine serum, heat inactivated (HyClone Laboratories Inc., Logan, UT, cat. SH30070.03HI), 389 ng/mL hydrocortisone (Sigma-Aldrich, cat. H4001), 9.7 ng/mL human EGF recombinant protein (Invitrogen, cat. PHG0313), 23.4 microg/mL adenine (Sigma-Aldrich, cat. A2786), 97.3 U/mL penicillin-streptomycin (Invitrogen, cat. 15140122), 1.9 mM L-glutamine (Invitrogen, cat. 25030081), and 9.7 microM Y-27632 dihydrochloride (Tocris Bioscience, Bristol, United Kingdom, cat. 1254). The PDCs were cultured in complete DMEM/F12 media without 10 microM Y-27632 dihydrochloride for at least two passages prior to the screen. The established cell lines NCI-H1341 and […] were cultured in DMEM/F-12, HEPES (Invitrogen, cat. 11330032), 5% defined fetal bovine serum (HyClone Laboratories Inc., cat. SH30070.03), ITS premix universal culture supplement [insulin (5 microg/mL), transferrin (5 microg/mL), and selenious acid (5 ng/mL)] […]

[1] = second compound 0.1 µM, first compound 0.00316 µM
[2] = second compound 0.1 µM, first compound 0.01 µM
[3] = second compound 0.1 µM, first compound 0.0316 µM
[4] = second compound 0.1 µM, first compound 0.1 µM
[5] = second compound 0.316 µM, first compound 0.00316 µM
[6] = second compound 0.316 µM, first compound 0.01 µM
[7] = second compound 0.316 µM, first compound 0.0316 µM
[8] = second compound 0.316 µM, first compound 0.1 µM
[9] = second compound 1 µM, first compound 0.00316 µM
[10] = second compound 1 µM, first compound 0.01 µM
[11] = second compound 1 µM, first compound 0.0316 µM
[12] = second compound 1 µM, first compound 0.1 µM
[13] = second compound 3.16 µM, first compound 0.00316 µM
[14] = second compound 3.16 µM, first compound 0.01 µM
[15] = second compound 3.16 µM, first compound 0.0316 µM
[16] = second compound 3.16 µM, first compound 0.1 µM
[17] = second compound 10 µM, first compound 0.00316 µM
[18] = second compound 10 µM, first compound 0.01 µM
[19] = second compound 10 µM, first compound 0.0316 µM
[20] = second compound 10 µM, first compound 0.1 µM
[21] = second compound 0.1 µM, first compound 0.316 µM
[22] = second compound 0.1 µM, first compound 1 µM
[23] = second compound 0.1 µM, first compound 3.16 µM
[24] = second compound 0.1 µM, first compound 10 µM
[25] = second compound 0.316 µM, first compound 0.316 µM
[26] = second compound 0.316 µM, first compound 1 µM
[27] = second compound 0.316 µM, first compound 3.16 µM
[28] = second compound 0.316 µM, first compound 10 µM
[29] = second compound 1 µM, first compound 0.316 µM
[30] = second compound 1 µM, first compound 1 µM
[31] = second compound 1 µM, first compound 3.16 µM
[32] = second compound 1 µM, first compound 10 µM
[33] = second compound 3.16 µM, first compound 0.316 µM
[34] = second compound 3.16 µM, first compound 1 µM
[35] = second compound 3.16 µM, first compound 3.16 µM
[36] = second compound 3.16 µM, first compound 10 µM
[37] = second compound 10 µM, first compound 0.316 µM
[38] = second compound 10 µM, first compound 1 µM
[39] = second compound 10 µM, first compound 3.16 µM
[40] = second compound 10 µM, first compound 10 µM
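Also: spheroids exposed to compounds for seven days.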

| SMILES | pIC50 (second compound 0.1 µM) | pIC50 (second compound 0.316 µM) | pIC50 (second compound 1 µM) | pIC50 (second compound 3.16 µM) | pIC50 (second compound 10 µM) | viability, T/C [3] [%] | viability, T/C [4] [%] | viability, T/C [7] [%] | viability, T/C [8] [%] | viability, T/C [11] [%] | viability, T/C [12] [%] | viability, T/C [15] [%] | viability, T/C [16] [%] | viability, T/C [19] [%] | viability, T/C [20] [%] | viability, T/C [21] [%] | viability, T/C [22] [%] | viability, T/C [25] [%] | viability, T/C [26] [%] | viability, T/C [29] [%] | also measured |
| --- | --- | --- | --- | --- | --- | --- | --- | --- | --- | --- | --- | --- | --- | --- | --- | --- | --- | --- | --- | --- | --- |
| CC[C@@]1(O)C(=O)OCc2c1cc1n(c2=O)Cc2cc3c(CN(C)C)c(O)ccc3nc2-1 + CC(CO)NC(=O)c1cc(-c2ccc(Cl)cc2)nn(-c2cnn(C)c2)c1=O | 7.94 | 7.93 | 7.97 | 8.11 | 8.09 | 8.77 | 4.56 | 7.83 | 5.61 | 10 | 6.33 | 10.9 | 4.27 | 10 | 7.97 |  |  |  |  |  | viability, T/C (second compound 0.1 µM, first compound 0.000316 µM): 104%; viability, T/C (second compound 0.1 µM, first compound 0.001 µM): 107%; viability, T/C [1]: 87.9%; viability, T/C [2]: 58.3%; viability, T/C (second compound 0.316 µM, first compound 0.000316 µM): 92.6%; viability, T/C (second compound 0.316 µM, first compound 0.001 µM): 94.5%; viability, T/C [5]: 87.9%; viability, T/C [6]: 57%; viability, T/C (second compound 1 µM, first compound 0.000316 µM): 110%; viability, T/C (second compound 1 µM, first compound 0.001 µM): 107%; viability, T/C [9]: 92.8%; viability, T/C [10]: 54.5%; viability, T/C (second compound 3.16 µM, first compound 0.000316 µM): 117%; viability, T/C (second compound 3.16 µM, first compound 0.001 µM): 106%; viability, T/C [13]: 81.4%; viability, T/C [14]: 43%; viability, T/C (second compound 10 µM, first compound 0.000316 µM): 89.4%; viability, T/C (second compound 10 µM, first compound 0.001 µM): 93%; viability, T/C [17]: 75.1%; viability, T/C [18]: 46.2% |
| COc1cc(C2c3cc4c(cc3C(OC3OC5COC(C)OC5C(O)C3O)C3COC(=O)C23)OCO4)cc(OC)c1O (stereo not given) + CC(CO)NC(=O)c1cc(-c2ccc(Cl)cc2)nn(-c2cnn(C)c2)c1=O | 6.11 | 6.16 | 6.17 | 6.31 | 6.51 | 102 | 106 | 96.5 | 89.2 | 101 | 103 | 110 | 97.6 | 91.5 | 89.1 | 85.9 | 39.8 | 74.8 | 39.9 | 81.6 | viability, T/C [23]: 10.2%; viability, T/C [24]: 7.1%; viability, T/C [27]: 9.03%; viability, T/C [28]: 7.53%; viability, T/C [30]: 33.3%; viability, T/C [31]: 10.9%; viability, T/C [32]: 8.44%; viability, T/C [33]: 68.4%; viability, T/C [34]: 20.8%; viability, T/C [35]: 12.2%; viability, T/C [36]: 7.27%; viability, T/C [37]: 48.7%; viability, T/C [38]: 17.7%; viability, T/C [39]: 13.8%; viability, T/C [40]: 9.69% |
| COc1cccc2c1C(=O)c1c(O)c3c(c(O)c1C2=O)CC(O)(C(=O)CO)CC3OC1CC(N)C(O)C(C)O1 (stereo not given) + CC(CO)NC(=O)c1cc(-c2ccc(Cl)cc2)nn(-c2cnn(C)c2)c1=O | > 7.50 | > 7.50 | > 7.50 | > 7.50 | > 7.50 | 26.3 | 15.5 | 21.1 | 14.9 | 24.6 | 14.6 | 21.3 | 21.2 | 15.4 | 19.3 | 6.77 | 0.48 | 7.09 | 0.26 | 6.76 | viability, T/C [23]: 0.93%; viability, T/C [24]: 0.78%; viability, T/C [27]: 1.12%; viability, T/C [28]: 0.78%; viability, T/C [30]: 0.2%; viability, T/C [31]: 1.11%; viability, T/C [32]: 1.04%; viability, T/C [33]: 3.93%; viability, T/C [34]: 0.22%; viability, T/C [35]: 0.98%; viability, T/C [36]: 0.67%; viability, T/C [37]: 3.22%; viability, T/C [38]: 0.46%; viability, T/C [39]: 0.54%; viability, T/C [40]: 0.83% |
| Nc1ncn(C2CC(O)C(CO)O2)c(=O)n1 (stereo not given) + CC(CO)NC(=O)c1cc(-c2ccc(Cl)cc2)nn(-c2cnn(C)c2)c1=O | 6.10 | 6.05 | 6.06 | < 6.00 | < 6.00 | 85.5 | 89 | 91.5 | 101 | 90.5 | 92.9 | 82.7 | 78.8 | 84.1 | 79.7 | 76.3 | 43 | 80.8 | 46.6 | 77.7 | viability, T/C [1]: 94.9%; viability, T/C [2]: 94.5%; viability, T/C [5]: 81.8%; viability, T/C [6]: 88.4%; viability, T/C [9]: 95.4%; viability, T/C [10]: 104%; viability, T/C [30]: 46%; viability, T/C [13]: 97.8%; viability, T/C [14]: 95%; viability, T/C [33]: 88.9%; viability, T/C [34]: 56.4%; viability, T/C [17]: 88.9%; viability, T/C [18]: 92.5%; viability, T/C [37]: 82.3%; viability, T/C [38]: 62.1% |
